Experimental data taken from PubChem BioAssay (NCI).
“And” between values parts separate entries of the source, which are not always exact repeats. Equal values may be shown once.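 Each compound was tested at five concentrations against cells in 96-well plates for 48 hours. Abbreviation: GI50, concentration required for 50% inhibition of growth. At the TGI there is no net growth.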

The compounds below were run on MDA-MB-468 breast (assay: NCI tumour cell line growth inhibition, 48 h).

Compared with N#Cc1c(N)c(C(=O)c2ccc3c(c2)OCCO3)n2c1CCCC2, COc1ccc2cc(C(=O)N3CCC([C@@H](C)C(=O)NCc4ccc5c(c4)OCO5)CC3)[nH]c2c1 is 35-fold higher in GI50: 2470 nM for the first, 86200 nM for the second.

COc1cc2nc(Cl)nc(Nc3cccc(C4=Nc5c(N)nc(N)nc5NC(c5ccc(F)cc5)C4)c3)c2cc1OC (stereo not drawn) and COc1cc(-c2n/c(=C\c3c(O)[nH]c4ccccc34)cc3c2=Nc2ccccc2-3)ccc1F are within 1.5-fold of each other in GI50: 1790 nM for the first, 2610 nM for the second.

Compared with Cc1cccc2c(=O)c3c(sc12)c(NCCCN)nc1ccccc13, O=c1cc(-c2ccccc2)oc2c(O)c(O)ccc12 is 10-fold higher in GI50: 1430 nM for the first, 14300 nM for the second.

Going from Nc1ccccc1NC(=O)c1ccc(NC(=O)C/C=C/c2cccnc2)cc1 to O=C(N/N=C/c1ccc([N+](=O)[O-])cc1)c1ccccc1Nc1ccnc(C(F)(F)F)c1, the GI50 rises from 915 nM to 15800 nM (17-fold).

First: CC1(C)CC[C@]2(C(=O)NCCNCCN)CC[C@]3(C)C(=CC[C@@H]4[C@@]5(C)CCC(=O)C(C)(C)[C@@H]5CC[C@]43C)[C@@H]2C1
Second: COC(=O)[C@@H](C)C[C@H](Cc1ccc(F)cc1)NC(=O)c1csc([C@@H](C[C@H](C(C)C)N(C)C(=O)[C@@H](NC(=O)[C@H]2CCCCN2C)C2CC2)OC(C)=O)n1
The GI50 of the first is 12-fold higher: 1710 nM for the first, 138 nM for the second.

Compared with COc1nc2c(c(=O)n1C)CN(c1ccccc1)C(=O)CN2C, N#Cc1nc(-c2ccccc2)oc1S(=O)(=O)N1CCN(CCc2ccccn2)CC1 is 8.3-fold lower in GI50: 13300 nM for the first, 1600 nM for the second.

Going from Oc1c(CN2CCCCC2)ccc2cccnc12 to COc1cc(OCCCN2CCCC2)ccc1Nc1ncc(Cl)c(Nc2ccccc2P(C)(C)=O)n1, the GI50 falls from 4890 nM to 1220 nM (4-fold).

First: C=C[C@@H]1CCC/C=C/[C@@H]2C[C@H](O)C[C@H]2[C@H](O)/C=C/C(=O)O1
Second: NC(CCl)=NCC12CC3CC(CC(C3)C1)C2
The GI50 of the first is 3.8-fold lower: 216 nM for the first, 827 nM for the second.

Compared with COc1ccc(-c2c(NC(=O)Nc3ccc(Cl)c(C(F)(F)F)c3)cnn2-c2ccc(S(N)(=O)=O)cc2)cc1, COc1ccc(-c2oc3ncnc(N)c3c2-c2ccc(NC(=O)Nc3cc(C(F)(F)F)ccc3F)cc2)cc1 is 2.3-fold lower in GI50: 2050 nM for the first, 903 nM for the second.

CCCCCCCCCCCCCCCCCC1=NC(C)(C)CN1C(C)(C)CO and CCCCCCCC(=O)Nc1nc2[nH]c(CN3CCN(Cc4cccc(I)c4)CC3)c(CN3CCN(Cc4cccc(I)c4)CC3)c2c(=O)[nH]1 are within 1.5-fold of each other in GI50: 1210 nM for the first, 858 nM for the second.

Going from CC1(C)N=C(N)N=C(N)N1c1cccc(CCCCc2ccc(Cl)c(S(=O)(=O)F)c2)c1 to Cn1cc(-c2ncnc3ccc(-c4cnc(Cl)c(NS(C)(=O)=O)c4)cc23)c2ccccc21, the GI50 falls from 10600 nM to 183 nM (58-fold).

C[C@]1(c2nc3c(C(N)=O)cccc3[nH]2)CCCN1 and NC(=O)c1ccc(I)c([N+](=O)[O-])c1 are within 1.5-fold of each other in GI50: 29700 nM for the first, 24400 nM for the second.

Compared with O=C1NN(C(=O)c2ccccc2)C(c2ccc(Cl)c(Cl)c2)=C/C1=C\c1ccccc1[N+](=O)[O-], COC1=CC(c2ccc[nH]2)=N/C1=C\c1[nH]c(C)c(CC(=O)NCc2ccccc2)c1C is 5.2-fold lower in GI50: 6140 nM for the first, 1170 nM for the second.

Going from O=C(Nc1ccc(Cl)cc1)c1cc(NCc2cc(O)ccc2O)ccc1O to CCOc1ccc(Nc2ccnc3cc(Cl)ccc23)cc1, the GI50 rises from 4810 nM to 43100 nM (9-fold).

Going from O=C(N/N=C\c1ccc(N(CCCl)CCCl)cc1)c1cccnc1 to COc1ccc2c(c1)C(=O)/C(=C/c1ccc(O)cc1)O2, the GI50 falls from 11000 nM to 2400 nM (4.6-fold).

Going from C#Cc1cccc(Nc2nc(C)nc3cc(NC(=O)CCl)ccc23)c1 to FC(F)(F)c1cccc(Oc2ccc(Nc3ncnc4ccc(OCCCN5CCOCC5)cc34)cc2Cl)c1, the GI50 falls from 770 nM to 480 nM (1.6-fold).

First: N[C@@H](Cc1c[nH]c2ccccc12)C(=O)NC1CCN(Cc2c[nH]c3ccc(Cl)cc23)CC1
Second: O=c1oc2ccc(F)cc2c(=O)n1-c1ccc(I)cc1F
The GI50 of the first is 6.5-fold higher: 2430 nM for the first, 375 nM for the second.

Going from CC[C@H](C)[C@H](NC(=O)c1ncccn1)C(=O)N(C)[C@H](C[C@@H](OC(C)=O)c1nc(C(=O)N[C@@H](Cc2ccccc2)C[C@H](C)C(=O)OC)cs1)C(C)C to CCCCNC(=O)Oc1ccc(/C(=C(\C)c2ccc(OC)cc2)c2ccc(OCCN3CCCCC3)cc2)cc1, the GI50 rises from 757 nM to 2080 nM (2.7-fold).

Compared with Cc1cc(C)c([I+]c2c(C)cc(C)cc2C)c(C)c1, CO[C@H]1/C=C/O[C@@]2(C)Oc3c(C)c(O)c4c(O)c(c(/C=N/N5C(C)CN(Cc6ccc(C#N)cc6)CC5C)c(O)c4c3C2=O)NC(=O)/C(C)=C\C=C\[C@H](C)[C@H](O)[C@@H](C)[C@@H](O)[C@@H](C)[C@H](OC(C)=O)[C@@H]1C (stereo partly drawn) is 82-fold higher in GI50: 134 nM for the first, 11000 nM for the second.

Compared with N#Cc1c(N)c(C(=O)c2ccc3c(c2)OCCO3)n2c1CCCC2, COc1ccc2cc(C(=O)N3CCC([C@@H](C)C(=O)NCc4ccc5c(c4)OCO5)CC3)[nH]c2c1 is higher in TGI: 23700 nM for the first, greater than 100000 nM for the second.

Going from COc1cc2nc(Cl)nc(Nc3cccc(C4=Nc5c(N)nc(N)nc5NC(c5ccc(F)cc5)C4)c3)c2cc1OC (stereo not drawn) to COc1cc(-c2n/c(=C\c3c(O)[nH]c4ccccc34)cc3c2=Nc2ccccc2-3)ccc1F, the TGI rises from 3390 nM to 16700 nM (4.9-fold).

Compared with Cc1cccc2c(=O)c3c(sc12)c(NCCCN)nc1ccccc13, O=c1cc(-c2ccccc2)oc2c(O)c(O)ccc12 is 27-fold higher in TGI: 2940 nM for the first, 79200 nM for the second.

Going from Nc1ccccc1NC(=O)c1ccc(NC(=O)C/C=C/c2cccnc2)cc1 to O=C(N/N=C/c1ccc([N+](=O)[O-])cc1)c1ccccc1Nc1ccnc(C(F)(F)F)c1, the TGI rises from 2660 nM to 41300 nM (16-fold).

Compared with CC1(C)CC[C@]2(C(=O)NCCNCCN)CC[C@]3(C)C(=CC[C@@H]4[C@@]5(C)CCC(=O)C(C)(C)[C@@H]5CC[C@]43C)[C@@H]2C1, COC(=O)[C@@H](C)C[C@H](Cc1ccc(F)cc1)NC(=O)c1csc([C@@H](C[C@H](C(C)C)N(C)C(=O)[C@@H](NC(=O)[C@H]2CCCCN2C)C2CC2)OC(C)=O)n1 is higher in TGI: 3290 nM for the first, greater than 25000 nM for the second.

Going from COc1nc2c(c(=O)n1C)CN(c1ccccc1)C(=O)CN2C to N#Cc1nc(-c2ccccc2)oc1S(=O)(=O)N1CCN(CCc2ccccn2)CC1, the TGI falls from 80900 nM to 3450 nM (23-fold).

Going from Oc1c(CN2CCCCC2)ccc2cccnc12 to COc1cc(OCCCN2CCCC2)ccc1Nc1ncc(Cl)c(Nc2ccccc2P(C)(C)=O)n1, the TGI falls from 22400 nM to 3640 nM (6.2-fold).

Compared with C=C[C@@H]1CCC/C=C/[C@@H]2C[C@H](O)C[C@H]2[C@H](O)/C=C/C(=O)O1, NC(CCl)=NCC12CC3CC(CC(C3)C1)C2 is 11-fold higher in TGI: 611 nM for the first, 6950 nM for the second.

First: COc1ccc(-c2c(NC(=O)Nc3ccc(Cl)c(C(F)(F)F)c3)cnn2-c2ccc(S(N)(=O)=O)cc2)cc1
Second: COc1ccc(-c2oc3ncnc(N)c3c2-c2ccc(NC(=O)Nc3cc(C(F)(F)F)ccc3F)cc2)cc1
The TGI of the first is 3-fold higher: 6880 nM for the first, 2310 nM for the second.

Compared with CCCCCCCCCCCCCCCCCC1=NC(C)(C)CN1C(C)(C)CO, CCCCCCCC(=O)Nc1nc2[nH]c(CN3CCN(Cc4cccc(I)c4)CC3)c(CN3CCN(Cc4cccc(I)c4)CC3)c2c(=O)[nH]1 is 1.6-fold lower in TGI: 2560 nM for the first, 1640 nM for the second.

Going from CC1(C)N=C(N)N=C(N)N1c1cccc(CCCCc2ccc(Cl)c(S(=O)(=O)F)c2)c1 to Cn1cc(-c2ncnc3ccc(-c4cnc(Cl)c(NS(C)(=O)=O)c4)cc23)c2ccccc21, the TGI falls from 24500 nM to 2350 nM (10-fold).

C[C@]1(c2nc3c(C(N)=O)cccc3[nH]2)CCCN1 and NC(=O)c1ccc(I)c([N+](=O)[O-])c1 cannot be ordered by TGI: greater than 100000 nM for the first, greater than 65600 nM for the second.

Compared with O=C1NN(C(=O)c2ccccc2)C(c2ccc(Cl)c(Cl)c2)=C/C1=C\c1ccccc1[N+](=O)[O-], COC1=CC(c2ccc[nH]2)=N/C1=C\c1[nH]c(C)c(CC(=O)NCc2ccccc2)c1C is lower in TGI: greater than 6750 nM for the first, 2630 nM for the second.

First: O=C(Nc1ccc(Cl)cc1)c1cc(NCc2cc(O)ccc2O)ccc1O
Second: CCOc1ccc(Nc2ccnc3cc(Cl)ccc23)cc1
The TGI of the first is lower: 26600 nM for the first, greater than 100000 nM for the second.

Going from O=C(N/N=C\c1ccc(N(CCCl)CCCl)cc1)c1cccnc1 to COc1ccc2c(c1)C(=O)/C(=C/c1ccc(O)cc1)O2, the TGI falls from 59600 nM to 12400 nM (4.8-fold).

C#Cc1cccc(Nc2nc(C)nc3cc(NC(=O)CCl)ccc23)c1 and FC(F)(F)c1cccc(Oc2ccc(Nc3ncnc4ccc(OCCCN5CCOCC5)cc34)cc2Cl)c1 are within 1.5-fold of each other in TGI: 2180 nM for the first, 2850 nM for the second.

Compared with N[C@@H](Cc1c[nH]c2ccccc12)C(=O)NC1CCN(Cc2c[nH]c3ccc(Cl)cc23)CC1, O=c1oc2ccc(F)cc2c(=O)n1-c1ccc(I)cc1F is 2.3-fold lower in TGI: 5740 nM for the first, 2450 nM for the second.

Going from CC[C@H](C)[C@H](NC(=O)c1ncccn1)C(=O)N(C)[C@H](C[C@@H](OC(C)=O)c1nc(C(=O)N[C@@H](Cc2ccccc2)C[C@H](C)C(=O)OC)cs1)C(C)C to CCCCNC(=O)Oc1ccc(/C(=C(\C)c2ccc(OC)cc2)c2ccc(OCCN3CCCCC3)cc2)cc1, the TGI falls from greater than 25000 nM to 5070 nM.

First: Cc1cc(C)c([I+]c2c(C)cc(C)cc2C)c(C)c1
Second: CO[C@H]1/C=C/O[C@@]2(C)Oc3c(C)c(O)c4c(O)c(c(/C=N/N5C(C)CN(Cc6ccc(C#N)cc6)CC5C)c(O)c4c3C2=O)NC(=O)/C(C)=C\C=C\[C@H](C)[C@H](O)[C@@H](C)[C@@H](O)[C@@H](C)[C@H](OC(C)=O)[C@@H]1C (stereo partly drawn)
The TGI of the first is 59-fold lower: 672 nM for the first, 39900 nM for the second.

COC(=O)[C@@H](C)C[C@H](Cc1ccccc1)NC(=O)c1csc([C@@H](C[C@H](C(C)C)N(C)C(=O)[C@@H](NC(=O)[C@H]2CCCCN2C)c2ccc(F)cc2)OC(C)=O)n1 was tested, and the GI50 was 4.17 nM and 2.5 nM and 16.3 nM.

For COC(=O)[C@@H](C)C[C@H](Cc1ccccc1)NC(=O)c1csc([C@@H](C[C@H](C(C)C)N(C)C(=O)[C@@H](NC(=O)[C@H]2CCCCN2C)c2ccc(F)cc2)OC(C)=O)n1, the TGI was 25000 nM and > 100000 nM.
